In US20030225152A1, “3-(Arylamino)methylene-1, 3-dihydro-2h-indol-2-ones as kinase inhibitors” (priority 2001, published 2003):

Test system: VEGF induced increases in intracellular calcium levels in HUVEC (human umbilical vein endothelial cells)
Experiment: VEGF Stimulated Ca++ Signal in vitro (FLIPR)
Assay type: cell-based
Conditions: 10 μM, VEGF 5 ng/mL
Procedure: VEGF Stimulated Ca^++ Signal in vitro
Automated FLIPR (Fluorometric Imaging Plate Reader) technology was used to screen for inhibitors of VEGF induced increases in intracellular calcium levels in fluorescent dye loaded endothelial cells. HUVEC (human umbilical vein endothelial cells) (Clonetics) were seeded in 96-well fibronectin coated black-walled plates overnight at 37° C./5%CO2. Cells were loaded with calcium indicator Fluo-4 for 45 minutes at 37° C. Cells were washed 4 times (Original Cell Wash, Labsystems) to remove extracellular dye. Test compounds were reconstituted in 100% DMSO and added to the cells to give a final DMSO concentration of 0.1%. For screening, cells were pre-incubated with test agents for 30 minutes, at a single concentration (10 μM) or at concentrations ranging from 0.01 to 10.0 μM followed by VEGF stimulation (5 ng/mL). Changes in fluorescence at 516 nm were measured simultaneously in all 96 wells using a cooled CCD camera. Data were generated by determining max-min fluorescence levels for unstimulated, stimulated, and drug treated samples. IC50 values for test compounds were calculated from % inhibition of VEGF stimulated responses in the absence of inhibitor.

Compared with `COc1ccc(NC=C2C(=O)Nc3ccc(Cl)cc32)cc1F` [Example 105, 5-Chloro-3-[(3-flouro-4-methoxyphenylamino)-methylene]-1,3-dihydro-indol-2-one], `O=C1Nc2ccc(F)cc2C1=CNc1ccc(N2CCCCC2)cc1` [Example 221] is higher in “VEGF Stimulated Ca^++ signal assay % inhibition @ 10 μM” value: 17.50% for the first, 97.59% for the second.

Same assay, conditions: 0.01 to 10.0 μM, VEGF 5 ng/mL

For `O=C1Nc2ccc(F)cc2C1=CNc1ccc(N2CCCCC2)cc1` [Example 221], the IC50 was 930 nM.

Same assay, conditions: Homo sapiens, 10 μM, VEGF 5 ng/mL

Compared with `Cc1ccc(NC=C2C(=O)Nc3ccc(Cl)cc32)cc1O` [Example 71, 3-[(3-Hydroxy-4-methylphenylamino)-methylene]-5-chloro-1,3-dihydro-indol-2-one], `O=C1Nc2ccc(Cl)cc2C1=CNc1ccc(O)c(C(=O)O)c1` [Example 108, 5-(5-Chloro-2-oxo-1,2-dihydro-indol-3-ylidenemethylamino)-2-hydroxybenzoic acid] is lower in inhibition at 10 µM: 38.5% for the first, -14.5% for the second.

Going from `O=C1Nc2ccc(Cl)cc2C1=CNc1ccccc1` [Example 74, 3-[(Phenylamino)-methylene]-5-chloro-1,3-dihydro-indol-2-one] to `O=C1Nc2ccc(Cl)cc2C1=CNc1cccc(O)c1` [Example 76, 3-[(3-Hydroxyphenylamino)-methylene]-5-chloro-1,3-dihydro-indol-2-one], the inhibition at 10 µM rises from 44% to 55.5%.

First: COc1cc(NC=C2C(=O)Nc3ccc(Cl)cc32)cc(OC)c1 [Example 75, 3-[(3,5-Dimethoxyphenylamino)-methylene]-5-chloro-1,3-dihydro-indol-2-one]
Second: Cc1cc(C)cc(NC=C2C(=O)Nc3ccc(Cl)cc32)c1 [Example 78, 3-[(3,5-Dimethylphenylamino)-methylene]-5-chloro-1,3-dihydro-indol-2-one]
The inhibition at 10 µM of the first is lower: -18% for the first, 8% for the second.

First: O=C1Nc2ccc(Cl)cc2C1=CNc1ccc(O)cc1 [Example 77, 3-[(4-Hydroxyphenylamino)-methylene]-5-chloro-1,3-dihydro-indol-2-one]
Second: Cc1ccc(NC=C2C(=O)Nc3ccc(Cl)cc32)cc1 [Example 79, 3-[(4-Methylphenylamino)-methylene]-5-chloro-1,3-dihydro-indol-2-one]
The inhibition at 10 µM of the first is higher: 35% for the first, -4% for the second.

First: O=C1Nc2ccccc2C1=CNc1ccc2c(c1)OCO2 [Example 80, 3-[(3,4-Methylenedioxyphenylamino)-methylene]-1,3-dihydro-indol-2-one]
Second: Cc1cc(NC=C2C(=O)Nc3ccccc32)ccc1O [Example 133, 3-[(4-Hydroxy-3-methyl-phenylamino)-methylene]-1,3-dihydro-indol-2-one]
The inhibition at 10 µM of the first is lower: 3.5% for the first, 73% for the second.

First: O=C1Nc2ccccc2C1=CNc1ccc(C(=O)O)cc1 [Example 86, 4-[(2-Oxo-1,2-dihydro-indol-3-ylidenemethyl)-amino]-benzoic acid]
Second: Cc1cccc2c1C(=CNc1ccc(C(N)=O)cc1)C(=O)N2 [Example 129, 4-[(4-Methyl-2-oxo-1,2-dihydro-indol-3-ylidenemethyl)-amino]-benzamide]
The inhibition at 10 µM of the first is lower: 48.5% for the first, 99% for the second.

Compared with `COC(=O)c1ccc(NC=C2C(=O)Nc3ccccc32)cc1OC` [Example 89, 2-Methoxy-4-[(2-oxo-1,2-dihydro-indol-3-ylidenemethyl)-amino]-benzoic acid methyl ester], `Cc1cccc2c1C(=CNc1ccc(C(=O)O)c(O)c1)C(=O)N2` [Example 155, 2-Hydroxy-4-[(4-methyl-2-oxo-1,2-dihydro-indol-3-ylidenemethyl)-amino]-benzoic acid] is higher in inhibition at 10 µM: 39.5% for the first, 97.2% for the second.

First: Cc1ccc(NC=C2C(=O)Nc3cccc(C)c32)cc1C [Example 95, 3-[(3,4-Dimethyl-phenylamino)-methylene]-4-methyl-1,3-dihydro-indol-2-one]
Second: Cc1cc(NC=C2C(=O)Nc3cccc(C)c32)ccc1O [Example 132, 3-[(4-Hydroxy-3-methyl-phenylamino)-methylene]-4-methyl-1,3-dihydro-indol-2-one]
The inhibition at 10 µM of the first is lower: 14% for the first, 73% for the second.

Going from `Cc1cccc2c1C(=CNc1ccc(C(C)(C)C)cc1)C(=O)N2` [Example 98, 3-[(4-tert-Butyl-phenylamino)-methylene]-4-methyl-1,3-dihydro-indol-2-one] to `CC(C)(C)c1ccc(NC=C2C(=O)Nc3ccc(Cl)cc32)cc1` [Example 100, 5-Chloro-3-[(4-t-butyl-phenylamino)-methylene]-1,3-dihydro-indol-2-one], the inhibition at 10 µM falls from 47.5% to 6%.

Going from `COc1cc(NC=C2C(=O)Nc3ccc(Cl)cc32)c(OC)cc1Cl` [Example 104, 5-Chloro-3-[(4-chloro-2,5-dimethoxy-phenylamino)-methylene]-1,3-dihydro-indol-2-one] to `Cc1cc(NC=C2C(=O)Nc3ccc(Cl)cc32)ccc1C(C)C` [Example 112, 5-Chloro-3-[(4-i-propyl-3-methylphenylamino)-methylene]-1,3-dihydro-indol-2-one], the inhibition at 10 µM rises from -14.5% to 10.5%.

First: CCOc1ccc(NC=C2C(=O)Nc3ccc(Cl)cc32)cc1 [Example 107, 5-Chloro-3-[(4-ethoxyphenylamino)-methylene]-1,3-dihydro-indol-2-one]
Second: N#Cc1ccc(NC=C2C(=O)Nc3ccc(Cl)cc32)cc1 [Example 152, 4-[(5-Chloro-2-oxo-1,2-dihydro-indol-3-ylidenemethyl)-amino]-benzonitrile]
The inhibition at 10 µM of the first is higher: 41.5% for the first, 18.7% for the second.

Going from `Cc1cccc2c1C(=CNc1ccc(O)c(C(=O)O)c1)C(=O)N2` [Example 118, 2-Hydroxy-5-[(4-methyl-2-oxo-1,2-dihydro-indol-3-ylidenemethyl)-amino]-benzoic acid] to `CCN(CC)Cc1cc(NC=C2C(=O)Nc3cccc(C)c32)ccc1O` [Example 161, 3-[(3-Diethylaminomethyl-4-hydroxy-phenylamino)-methylene]-4-methyl-1,3-dihydro-indol-2-one], the inhibition at 10 µM rises from -27% to 95.2%.

First: Cc1cccc2c1C(=CNc1ccc(OC(F)(F)F)cc1)C(=O)N2 [Example 120, 4-Methyl-3-[(4-trifluoromethoxy-phenylamino)-methylene]-1,3-dihydro-indol-2-one]
Second: COc1ccc(NC=C2C(=O)Nc3cccc(C)c32)cc1C(F)(F)F [Example 121, 3-[(4-Methoxy-3-trifluoromethyl-phenylamino)-methylene]-4-methyl-1,3-dihydro-indol-2-one]
The inhibition at 10 µM of the first is higher: 12.7% for the first, 4.86% for the second.

First: CCc1ccccc1NC=C1C(=O)Nc2cccc(C)c21 [Example 127, 3-[(2-Ethyl-phenylamino)-methylene]-4-methyl-1,3-dihydro-indol-2-one]
Second: CCc1cccc(NC=C2C(=O)Nc3ccc(Cl)cc32)c1 [Example 148, 5-Chloro-3-[(3-ethyl-phenylamino)-methylene]-1,3-dihydro-indol-2-one]
The inhibition at 10 µM of the first is lower: -11.8% for the first, 42.2% for the second.

Same assay, conditions: Homo sapiens, 0.01 to 10.0 μM, VEGF 5 ng/mL

Compared with `Cc1cccc2c1C(=CNc1ccc(C(N)=O)cc1)C(=O)N2` [Example 129, 4-[(4-Methyl-2-oxo-1,2-dihydro-indol-3-ylidenemethyl)-amino]-benzamide], `Cc1cccc2c1C(=CNc1ccc(C(=O)O)c(O)c1)C(=O)N2` [Example 155, 2-Hydroxy-4-[(4-methyl-2-oxo-1,2-dihydro-indol-3-ylidenemethyl)-amino]-benzoic acid] is 2-fold higher in IC50: 1270 nM for the first, 2600 nM for the second. The first is the more potent here.

Compared with `Cc1cc(NC=C2C(=O)Nc3cccc(C)c32)ccc1O` [Example 132, 3-[(4-Hydroxy-3-methyl-phenylamino)-methylene]-4-methyl-1,3-dihydro-indol-2-one], `Cc1cc(NC=C2C(=O)Nc3ccccc32)ccc1O` [Example 133, 3-[(4-Hydroxy-3-methyl-phenylamino)-methylene]-1,3-dihydro-indol-2-one] is 1.5-fold lower in IC50: 7380 nM for the first, 4910 nM for the second. The second is the more potent here.

Going from `CN1CCN(CCCNc2ccc(NC=C3C(=O)Nc4ccccc43)cc2)CC1` [Example 302, 3-({4-[3-(4-Methyl-piperazin-1-yl)-propylamino]-phenylamino}-methylene)-1,3-dihydro-indol-2-one] to `CN1CCN(CCCNc2ccc(NC=C3C(=O)Nc4cc(F)ccc43)cc2)CC1` [Example 304, 6-Fluoro-3-({4-[3-(4-methyl-piperazin-1-yl)-propylamino]-phenylamino}-methylene)-1,3-dihydro-indol-2-one], the IC50 falls from 710 nM to 120 nM (5.9-fold). The second is the more potent here.

First: Cc1cccc2c1C(=CNc1ccc(NCCCN3CCN(C)CC3)cc1)C(=O)N2 [Example 303, 4-Methyl-3-({4-[3-(4-methyl-piperazin-1-yl)-propylamino]-phenylamino}-methylene)-1,3-dihydro-indol-2-one]
Second: Cc1cccc2c1C(=CNc1ccc(CCCCN3CCOCC3)cc1)C(=O)N2 [Example 314, 4-Methyl-3-{[4-(4-morpholin-4-yl-butyl)-phenylamino]-methylene}-1,3-dihydro-indol-2-one]
The IC50 of the first is 1.6-fold higher: 520 nM for the first, 320 nM for the second. The second is the more potent here.

Going from `O=C1Nc2ccccc2C1=CNc1ccc(CCCCN2CCOCC2)cc1` [Example 312, 3-{[4-(4-Morpholin-4-yl-butyl)-phenylamino]-methylene}-1,3-dihydro-indol-2-one] to `O=C1Nc2ccc(Cl)cc2C1=CNc1ccc(CCCCN2CCOCC2)cc1` [Example 313, 5-Chloro-3-{[4-(4-morpholin-4-yl-butyl)-phenylamino]-methylene}-1,3-dihydro-indol-2-one], the IC50 rises from 540 nM to 990 nM (1.8-fold).

Going from `O=C1Nc2cccc(F)c2C1=CNc1ccc(CCCCN2CCOCC2)cc1` [Example 315, 4-Fluoro-3-{[4-(4-morpholin-4-yl-butyl)-phenylamino]-methylene}-1,3-dihydro-indol-2-one] to `O=C1Nc2ccc(F)cc2C1=CNc1ccc(CCCCN2CCOCC2)cc1` [Example 316, 5-Fluoro-3-{[4-(4-morpholin-4-yl-butyl)-phenylamino]-methylene}-1,3-dihydro-indol-2-one], the IC50 falls from 1540 nM to 590 nM (2.6-fold). The second is the more potent here.

First: O=C1Nc2cc(F)ccc2C1=CNc1ccc(CCCCN2CCOCC2)cc1 [Example 317, 6-Fluoro-3-{[4-(4-morpholin-4-yl-butyl)-phenylamino]-methylene}-1,3-dihydro-indol-2-one]
Second: O=C1Nc2ccc(Cl)cc2C1=CNc1ccc(CCCCN2CCCCC2)cc1 [Example 319, 5-Chloro-3-{[4-(4-piperidin-1-yl-butyl)-phenylamino]-methylene}-1,3-dihydro-indol-2-one]
The IC50 of the first is 5.6-fold lower: 170 nM for the first, 950 nM for the second.
